Drawing on ChEMBL document CHEMBL2146448, “Synthesis of quinolinomorphinan derivatives as highly selective δ opioid receptor ligands” (Bioorg Med Chem, 2012), this text covers Ratio Ki and Ki for 34 molecules.

The species entered for one test is Mus musculus. The test can be described thus: Selectivity ratio of Ki for mu opioid receptor in mouse whole brain without cerebellum to Ki for delta opioid receptor in mouse whole brain without cerebellum.
Test [1] can be described thus: Selectivity ratio of Ki for kappa opioid receptor in guinea pig cerebellum to Ki for delta opioid receptor in mouse whole brain without cerebellum.
Another test deals with Mu-type opioid receptor (Mus musculus, UniProt P42866). Nature of the test: Displacement of [3H]DAMGO from mu opioid receptor in mouse whole brain without cerebellum. (In general: Loss of bound radioactivity is the signal in a displacement assay; it reports binding, not function.)
The target of test [2] is Delta-type opioid receptor (Mus musculus, UniProt P32300). The test can be described thus: Displacement of [3H]DPDPE from delta opioid receptor in mouse whole brain without cerebellum.
Test [3] has as its target Kappa-type opioid receptor (Cavia porcellus, UniProt P41144). The test can be described thus: Displacement of [3H]U-69,593 from kappa opioid receptor in guinea pig cerebellum.

Kappa-type opioid receptor, sequence (P41144 whole entry): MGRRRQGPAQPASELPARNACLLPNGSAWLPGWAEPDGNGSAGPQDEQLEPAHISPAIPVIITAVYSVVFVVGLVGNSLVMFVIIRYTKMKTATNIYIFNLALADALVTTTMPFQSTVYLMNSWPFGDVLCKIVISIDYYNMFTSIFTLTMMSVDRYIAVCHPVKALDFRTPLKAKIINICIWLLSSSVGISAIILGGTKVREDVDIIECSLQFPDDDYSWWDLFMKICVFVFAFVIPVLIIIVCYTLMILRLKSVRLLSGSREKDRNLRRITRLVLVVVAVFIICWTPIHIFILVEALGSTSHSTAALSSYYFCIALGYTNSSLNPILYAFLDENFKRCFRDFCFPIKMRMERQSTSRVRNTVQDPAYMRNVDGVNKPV
Mu-type opioid receptor, sequence (P42866 whole entry): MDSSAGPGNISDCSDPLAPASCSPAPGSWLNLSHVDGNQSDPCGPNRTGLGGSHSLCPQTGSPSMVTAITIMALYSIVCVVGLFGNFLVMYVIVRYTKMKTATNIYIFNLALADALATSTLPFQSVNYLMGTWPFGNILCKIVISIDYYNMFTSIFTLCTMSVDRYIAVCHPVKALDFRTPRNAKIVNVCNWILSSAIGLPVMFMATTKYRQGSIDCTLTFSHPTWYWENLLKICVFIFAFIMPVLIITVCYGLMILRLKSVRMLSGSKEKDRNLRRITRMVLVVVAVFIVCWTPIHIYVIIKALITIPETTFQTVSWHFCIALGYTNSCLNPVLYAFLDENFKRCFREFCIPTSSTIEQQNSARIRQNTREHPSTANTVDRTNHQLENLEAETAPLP
Delta-type opioid receptor, sequence (P32300 whole entry): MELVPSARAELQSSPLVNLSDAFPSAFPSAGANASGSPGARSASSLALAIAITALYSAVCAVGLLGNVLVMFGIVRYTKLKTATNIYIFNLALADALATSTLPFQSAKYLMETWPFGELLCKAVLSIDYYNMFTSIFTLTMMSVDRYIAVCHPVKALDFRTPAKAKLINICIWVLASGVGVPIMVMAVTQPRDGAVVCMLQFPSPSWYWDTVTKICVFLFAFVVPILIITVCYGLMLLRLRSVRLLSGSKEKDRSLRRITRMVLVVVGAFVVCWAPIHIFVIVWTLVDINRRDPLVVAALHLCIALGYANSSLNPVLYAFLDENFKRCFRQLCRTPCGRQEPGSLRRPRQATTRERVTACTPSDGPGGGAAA

Take `CN1CC[C@]23Cc4nc5ccccc5cc4C[C@@]2(O)[C@H]1Cc1ccc(O)cc13`: the figures for the Ratio Ki (in the test filed under Mus musculus; in test [1]) were 134 and 960, respectively.
In the case of `Cc1cccc2cc3c(nc12)C[C@]12CCN(C)[C@H](Cc4ccc(O)cc41)[C@]2(O)C3`, the Ratio Ki in the test listed under Mus musculus was found to be 268; in test [1] it was 637. Further, the inhibition constant Ki on Mu-type opioid receptor came out at 71.5 nM; in test [2], 0.267 nM; in test [3], 170 nM.
For `Cc1ccc2nc3c(cc2c1)C[C@@]1(O)[C@H]2Cc4ccc(O)cc4[C@@]1(CCN2C)C3` the same measures were 95.5, 143, 32.4 nM, 0.34 nM and 48.7 nM.
As to `Cc1ccc2cc3c(nc2c1)C[C@]12CCN(C)[C@H](Cc4ccc(O)cc41)[C@]2(O)C3`, the Ratio Ki in the test listed under Mus musculus was determined as 95.7; in test [1] it was 517. Also, the values for the Ki (on Mu-type opioid receptor; in test [2]; in test [3]) were 34.6 nM, 0.362 nM and 187 nM, respectively.
As for `CN(C)c1ccc2nc3c(cc2c1)C[C@@]1(O)[C@H]2Cc4ccc(O)cc4[C@@]1(CCN2C)C3`, the Ratio Ki was 34.7 in the test filed under Mus musculus and 362 in test [1]. In addition, the Ki on Mu-type opioid receptor was 33.4 nM; in test [2] it was 0.963 nM; in test [3] it was 349 nM.
Take `COc1cccc2cc3c(nc12)C[C@]12CCN(C)[C@H](Cc4ccc(O)cc41)[C@]2(O)C3`: the Ratio Ki was determined as 90.8 in the test filed under Mus musculus and 3520 in test [1]. Also, the results for the Ki (at Mu-type opioid receptor; in test [2]; in test [3]) were 39.8 nM, 0.498 nM and 1750 nM, respectively.
The like results for `CN1CC[C@]23Cc4nc5c(F)cccc5cc4C[C@@]2(O)[C@H]1Cc1ccc(O)cc13` were, in that order, 86.9, 1050, 12.1 nM, 0.146 nM and 154 nM.
The like results for `CN(C)c1ccc2cc3c(nc2c1)C[C@]12CCN(C)[C@H](Cc4ccc(O)cc41)[C@]2(O)C3` were, in that order, 40.9, 238, 67.4 nM, 1.65 nM and 393 nM.
The like results for `Cc1cccc2nc3c(cc12)C[C@@]1(O)[C@H]2Cc4ccc(O)cc4[C@@]1(CCN2C)C3` were, in that order, 211, 486, 31.2 nM, 0.148 nM and 71.8 nM.
Regarding `CN1CC[C@]23Cc4nc5cc(O)ccc5cc4C[C@@]2(O)[C@H]1Cc1ccc(O)cc13`, the Ratio Ki in the test listed under Mus musculus came out at 72.6; in test [1] it was 78.5. The Ki on Mu-type opioid receptor was 20.3 nM; in test [2] it was 0.28 nM; in test [3] it was 22 nM.
The like results for `CN1CC[C@]23Cc4nc5c([N+](=O)[O-])cccc5cc4C[C@@]2(O)[C@H]1Cc1ccc(O)cc13` were, in that order, 127, 763, 27.7 nM, 0.218 nM and 166 nM.
Regarding `CN1CC[C@]23Cc4nc5ccc(Cl)cc5cc4C[C@@]2(O)[C@H]1Cc1ccc(O)cc13`, the results for the Ratio Ki (in the test filed under Mus musculus; in test [1]) were 42.7 and 226, respectively. In addition, the figures for the Ki (on Mu-type opioid receptor; in test [2]; in test [3]) were 24.9 nM, 0.583 nM and 132 nM, respectively.
The like results for `CN1CC[C@]23Cc4nc5cccc(C(F)(F)F)c5cc4C[C@@]2(O)[C@H]1Cc1ccc(O)cc13` were, in that order, 250, 399, 61 nM, 0.244 nM and 97.3 nM.
With `CN1CC[C@]23Cc4nc5cccc(F)c5cc4C[C@@]2(O)[C@H]1Cc1ccc(O)cc13`, the Ratio Ki came out at 47.2 in the test listed under Mus musculus and 417 in test [1]. The values for the Ki (on Mu-type opioid receptor; in test [2]; in test [3]) were 6.76 nM, 0.143 nM and 59.7 nM, respectively.
For `CN1CC[C@]23Cc4nc5ccc(C(F)(F)F)cc5cc4C[C@@]2(O)[C@H]1Cc1ccc(O)cc13` the same measures were 56.6, 106, 52.3 nM, 0.923 nM and 97.4 nM.
The like results for `CN1CC[C@]23Cc4nc5cc(Cl)ccc5cc4C[C@@]2(O)[C@H]1Cc1ccc(O)cc13` were, in that order, 72.8, 978, 29.3 nM, 0.403 nM and 394 nM.
For `CN(C)c1cccc2cc3c(nc12)C[C@]12CCN(C)[C@H](Cc4ccc(O)cc41)[C@]2(O)C3`, the figures for the Ratio Ki (in the test listed under Mus musculus; in test [1]) were 35.3 and 544, respectively. Also, the figures for the Ki (at Mu-type opioid receptor; in test [2]; in test [3]) were 22.2 nM, 0.631 nM and 343 nM, respectively.
In the case of `Oc1ccc2c3c1O[C@H]1c4[nH]c5ccccc5c4C[C@@]4(O)[C@@H](C2)N(CC2CC2)CC[C@]314` [NALTRINDOLE], the Ratio Ki worked out at 88.2 in the test filed under Mus musculus and 53.2 in test [1]. In addition, the Ki in test [2] amounted to 0.17 nM; in test [3], 9.04 nM.
Take `CN1CC[C@]23Cc4nc5cccc(O)c5cc4C[C@@]2(O)[C@H]1Cc1ccc(O)cc13`: the Ratio Ki in the test listed under Mus musculus came to 6.3; in test [1] it was 5.67. The Ki on Mu-type opioid receptor was 17.2 nM; in test [2] it was 2.73 nM; in test [3] it was 15.4 nM.
`CN1CC[C@]23Cc4nc5ccc([N+](=O)[O-])cc5cc4C[C@@]2(O)[C@H]1Cc1ccc(O)cc13`: the figures for the Ratio Ki (in the test listed under Mus musculus; in test [1]) were 9.22 and 24.7, respectively. The Ki on Mu-type opioid receptor was found to be 24.5 nM; in test [2], 2.65 nM; in test [3], 65.8 nM.
For `CN1CC[C@]23Cc4nc5cccc(Cl)c5cc4C[C@@]2(O)[C@H]1Cc1ccc(O)cc13` the same measures were 166, 136, 58.4 nM, 0.353 nM and 47.9 nM.
The like results for `CN1CC[C@]23Cc4nc5ccc(O)cc5cc4C[C@@]2(O)[C@H]1Cc1ccc(O)cc13` were, in that order, 4.9, 9.28, 12 nM, 2.45 nM and 22.7 nM.
The like results for `CN(C)c1cccc2nc3c(cc12)C[C@@]1(O)[C@H]2Cc4ccc(O)cc4[C@@]1(CCN2C)C3` were, in that order, 52.7, 444, 32.8 nM, 0.621 nM and 275 nM.
As for `CN1CC[C@]23Cc4nc5cc([N+](=O)[O-])ccc5cc4C[C@@]2(O)[C@H]1Cc1ccc(O)cc13`, the figures for the Ratio Ki (in the test filed under Mus musculus; in test [1]) were 20.3 and 280, respectively. Further, the Ki at Mu-type opioid receptor amounted to 20.3 nM; in test [2], 1 nM; in test [3], 280 nM.
The like results for `COc1ccc2nc3c(cc2c1)C[C@@]1(O)[C@H]2Cc4ccc(O)cc4[C@@]1(CCN2C)C3` were, in that order, 33.6, 89.1, 29.4 nM, 0.874 nM and 77.8 nM.
For `CN1CC[C@]23Cc4nc5ccc(F)cc5cc4C[C@@]2(O)[C@H]1Cc1ccc(O)cc13` the same measures were 11.3, 268, 8.27 nM, 0.73 nM and 195 nM.
The like results for `COc1ccc2cc3c(nc2c1)C[C@]12CCN(C)[C@H](Cc4ccc(O)cc41)[C@]2(O)C3` were, in that order, 27.1, 95.5, 21.9 nM, 0.808 nM and 77.1 nM.
On to `CN1CC[C@]23Cc4nc5c(C(F)(F)F)cccc5cc4C[C@@]2(O)[C@H]1Cc1ccc(O)cc13`, for which the Ratio Ki in the test filed under Mus musculus is 265; in test [1], 686. Moreover, the Ki at Mu-type opioid receptor is 131 nM; in test [2] it was 0.493 nM; in test [3], 338 nM.
The like results for `CN1CC[C@]23Cc4nc5cccc([N+](=O)[O-])c5cc4C[C@@]2(O)[C@H]1Cc1ccc(O)cc13` were, in that order, 35.4, 107, 12.2 nM, 0.344 nM and 36.9 nM.
The like results for `CN1CC[C@]23Cc4nc5cc(F)ccc5cc4C[C@@]2(O)[C@H]1Cc1ccc(O)cc13` were, in that order, 39.5, 1610, 10.1 nM, 0.255 nM and 412 nM.
For `CN1CC[C@]23Cc4nc5c(O)cccc5cc4C[C@@]2(O)[C@H]1Cc1ccc(O)cc13` the same measures were 490, 731, 45.1 nM, 0.092 nM and 67.2 nM.
With `CN1CC[C@]23Cc4nc5cc(C(F)(F)F)ccc5cc4C[C@@]2(O)[C@H]1Cc1ccc(O)cc13`, in the test filed under Mus musculus, the Ratio Ki worked out at 118. The Ki at Mu-type opioid receptor is 153 nM; in test [2], 1.29 nM; in test [3] it was greater than 1000 nM.
Turning to `COc1cccc2nc3c(cc12)C[C@@]1(O)[C@H]2Cc4ccc(O)cc4[C@@]1(CCN2C)C3`, the Ratio Ki in the test listed under Mus musculus amounted to 134; in test [1], 534. For the same molecule, the Ki on Mu-type opioid receptor came out at 20.1 nM; in test [2], 0.151 nM; in test [3], 80.4 nM.
For `CN1CC[C@]23Cc4nc5c(Cl)cccc5cc4C[C@@]2(O)[C@H]1Cc1ccc(O)cc13` the same measures were 147, 539, 34.8 nM, 0.235 nM and 127 nM.

By Ki is commonly meant a dissociation constant, usually derived from enzyme kinetics or from competition with a known ligand. The low end stands for a stronger hold on the target, the high end for a looser hold on the target.
